ChEMBL document CHEMBL5380790 (J Med Chem, 2023)
In brackets after ≈: the same amount, converted by molar mass. Activity calls are given as the source filed them. No cut-off for these calls is given here.

How the values were obtained:
[1] = biological target: Mast/stem cell growth factor receptor Kit (Homo sapiens, UniProt P10721, DELTA560/V654A); format: cell-based, GIST-430/654
[2] = Metabolic stability in human hepatocytes assessed as intrinsic clearance measured per million cells; format: ADME, cell-based, Hepatocyte; conditions: read-out: CLH
[3] = Apparent passive permeability of compound in human Caco-2 cells at 1 uM and measured after 2 hrs by LC-MS/MS analysis; format: ADME, cell-based
[4] = Efflux ratio of apparent permeability from basolateral to apical side over apical to basolateral side in human Caco-2 cells at 1 uM and measured after 2 hrs by LC-MS/MS analysis; format: ADME, cell-based
[5] = Solubility of compound in FaSSIF at pH 6.5; format: physicochemical
[6] = biological target: hERG (KCNH2) potassium channel (Homo sapiens, UniProt Q12809); assay: Inhibition of human ERG potassium channel transfected in HEK293 cells at holding potential -80 mV at 10 uM and measured for 5 mins by whole cell patch clamp assay; format: toxicity, cell-based; conditions: HEK293 cells transfected with hERG
Chain of hERG (KCNH2) potassium channel (Q12809 whole entry): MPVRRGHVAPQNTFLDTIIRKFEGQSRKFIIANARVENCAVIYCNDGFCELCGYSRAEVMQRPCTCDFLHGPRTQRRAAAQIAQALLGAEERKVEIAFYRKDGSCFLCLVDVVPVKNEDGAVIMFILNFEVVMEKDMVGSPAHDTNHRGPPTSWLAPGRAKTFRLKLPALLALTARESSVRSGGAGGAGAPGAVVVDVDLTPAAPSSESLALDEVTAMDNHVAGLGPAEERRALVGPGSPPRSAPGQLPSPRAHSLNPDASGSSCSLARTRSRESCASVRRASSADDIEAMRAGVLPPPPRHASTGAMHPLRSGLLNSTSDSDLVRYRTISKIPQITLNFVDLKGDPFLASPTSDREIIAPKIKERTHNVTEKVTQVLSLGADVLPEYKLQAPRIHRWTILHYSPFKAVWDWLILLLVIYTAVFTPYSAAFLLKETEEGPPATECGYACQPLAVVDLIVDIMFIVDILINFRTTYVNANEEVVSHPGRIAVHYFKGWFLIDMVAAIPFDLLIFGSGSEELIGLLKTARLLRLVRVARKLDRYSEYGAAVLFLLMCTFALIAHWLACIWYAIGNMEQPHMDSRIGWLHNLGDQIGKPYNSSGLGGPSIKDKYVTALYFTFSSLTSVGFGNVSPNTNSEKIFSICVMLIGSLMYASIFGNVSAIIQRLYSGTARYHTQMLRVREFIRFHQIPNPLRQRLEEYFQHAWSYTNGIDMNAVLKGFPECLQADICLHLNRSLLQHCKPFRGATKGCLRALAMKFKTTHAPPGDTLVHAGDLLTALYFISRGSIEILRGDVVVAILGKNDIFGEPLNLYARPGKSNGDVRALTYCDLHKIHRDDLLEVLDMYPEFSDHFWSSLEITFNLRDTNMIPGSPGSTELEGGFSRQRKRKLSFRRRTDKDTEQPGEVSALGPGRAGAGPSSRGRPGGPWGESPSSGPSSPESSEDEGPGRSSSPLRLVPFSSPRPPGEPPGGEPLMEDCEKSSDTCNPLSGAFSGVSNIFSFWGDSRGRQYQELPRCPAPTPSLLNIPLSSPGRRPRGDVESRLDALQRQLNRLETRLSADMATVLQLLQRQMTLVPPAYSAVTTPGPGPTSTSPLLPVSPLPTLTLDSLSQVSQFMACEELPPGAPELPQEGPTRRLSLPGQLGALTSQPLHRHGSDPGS

[7] = Octanol-water distribution coefficient, logD of the compound at pH 7.4; format: physicochemical
[8] = Dissociation constant, pKa of the compound; format: physicochemical
[9] = Metabolic stability in human liver microsomes assessed as intrinsic clearance in presence of NADPH by UPLC analysis; format: ADME, Microsome; conditions: read-out: CLH
[10] = Metabolic stability in mouse liver microsomes assessed as intrinsic clearance in presence of NADPH by UPLC analysis; format: ADME, Microsome; conditions: read-out: CLH
[11] = Kinetic solubility of compound in PBS buffer at pH 7.4 and measured after 2 hrs by HPLC-UV analysis; format: physicochemical; conditions: read-out: Kinetic_solubility
[12] = biological target: Receptor-type tyrosine-protein kinase FLT3 (Homo sapiens) (UniProt P36888); assay: Inhibition of FLT3 (unknown origin) at 1 uM using 33P-ATP as substrate incubated for 120 mins by radiometric kinase assay
Chain of Receptor-type tyrosine-protein kinase FLT3 (Homo sapiens) (P36888 whole entry): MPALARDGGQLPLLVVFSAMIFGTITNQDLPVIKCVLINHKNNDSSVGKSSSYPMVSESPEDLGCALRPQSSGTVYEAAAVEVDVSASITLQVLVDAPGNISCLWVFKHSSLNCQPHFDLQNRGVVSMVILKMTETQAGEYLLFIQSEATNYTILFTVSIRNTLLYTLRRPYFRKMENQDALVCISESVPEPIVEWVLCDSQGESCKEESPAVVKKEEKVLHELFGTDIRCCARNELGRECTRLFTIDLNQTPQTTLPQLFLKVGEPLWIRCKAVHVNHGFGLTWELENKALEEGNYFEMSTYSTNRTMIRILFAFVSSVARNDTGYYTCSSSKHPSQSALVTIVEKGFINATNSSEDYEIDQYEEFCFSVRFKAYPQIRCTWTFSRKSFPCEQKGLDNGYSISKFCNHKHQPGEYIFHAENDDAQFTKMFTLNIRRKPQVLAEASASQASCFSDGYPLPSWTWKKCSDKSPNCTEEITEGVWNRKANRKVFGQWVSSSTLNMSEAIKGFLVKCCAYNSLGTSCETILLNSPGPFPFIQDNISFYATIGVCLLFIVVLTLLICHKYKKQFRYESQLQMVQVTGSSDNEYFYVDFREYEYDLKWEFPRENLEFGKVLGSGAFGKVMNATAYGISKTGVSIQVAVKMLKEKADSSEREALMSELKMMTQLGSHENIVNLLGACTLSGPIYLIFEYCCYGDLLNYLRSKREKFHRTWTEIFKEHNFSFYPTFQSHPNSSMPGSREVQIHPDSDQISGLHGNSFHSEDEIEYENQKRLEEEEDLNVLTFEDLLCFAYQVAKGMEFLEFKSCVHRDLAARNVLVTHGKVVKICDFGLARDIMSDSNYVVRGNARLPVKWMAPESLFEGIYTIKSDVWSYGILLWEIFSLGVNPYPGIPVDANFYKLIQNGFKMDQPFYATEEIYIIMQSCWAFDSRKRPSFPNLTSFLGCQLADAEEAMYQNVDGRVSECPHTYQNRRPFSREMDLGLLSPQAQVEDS

[13] = Solubility of compound in FeSSIF at pH 5.5; format: physicochemical
[14] = Solubility of compound in simulated gastric fluid at pH 1.2; format: physicochemical
[15] = biological target: Mast/stem cell growth factor receptor Kit (Homo sapiens, UniProt P10721, V654A); assay: Inhibition of recombinant human KIT V654A mutant using polyGT and ATP as substrate preincubated for 20 mins followed by substrate addition and measured after 240 mins by FRET assay
Chain of Mast/stem cell growth factor receptor Kit (Homo sapiens, UniProt P10721, V654A) (P10721 26-976 V654A limits assumed): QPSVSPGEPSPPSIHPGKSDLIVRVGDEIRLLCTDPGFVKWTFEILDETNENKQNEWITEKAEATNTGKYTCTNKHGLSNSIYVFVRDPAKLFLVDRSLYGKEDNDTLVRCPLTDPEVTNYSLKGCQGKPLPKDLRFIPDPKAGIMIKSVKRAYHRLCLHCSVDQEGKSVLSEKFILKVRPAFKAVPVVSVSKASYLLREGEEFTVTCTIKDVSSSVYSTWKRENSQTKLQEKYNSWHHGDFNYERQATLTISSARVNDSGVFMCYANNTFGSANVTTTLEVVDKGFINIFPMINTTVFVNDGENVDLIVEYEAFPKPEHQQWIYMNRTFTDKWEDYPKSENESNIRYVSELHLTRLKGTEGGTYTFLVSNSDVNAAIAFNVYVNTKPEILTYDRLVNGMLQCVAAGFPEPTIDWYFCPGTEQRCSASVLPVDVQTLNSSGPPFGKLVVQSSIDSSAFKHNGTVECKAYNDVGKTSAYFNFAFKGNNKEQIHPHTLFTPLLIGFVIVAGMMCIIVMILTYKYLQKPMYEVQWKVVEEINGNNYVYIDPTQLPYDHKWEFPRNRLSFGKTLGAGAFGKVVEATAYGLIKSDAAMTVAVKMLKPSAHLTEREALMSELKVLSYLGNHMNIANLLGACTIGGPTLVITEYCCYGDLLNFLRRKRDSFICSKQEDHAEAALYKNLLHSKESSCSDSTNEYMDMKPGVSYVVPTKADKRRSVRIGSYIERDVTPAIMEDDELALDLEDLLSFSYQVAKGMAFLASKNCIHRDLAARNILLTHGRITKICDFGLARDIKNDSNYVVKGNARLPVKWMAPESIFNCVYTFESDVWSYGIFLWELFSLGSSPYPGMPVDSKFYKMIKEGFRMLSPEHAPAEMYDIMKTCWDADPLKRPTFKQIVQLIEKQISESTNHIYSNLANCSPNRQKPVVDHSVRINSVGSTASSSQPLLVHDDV

Chain of Mast/stem cell growth factor receptor Kit (Homo sapiens, UniProt P10721, DELTA560/V654A) (P10721 whole entry, looked up, stated change not applied): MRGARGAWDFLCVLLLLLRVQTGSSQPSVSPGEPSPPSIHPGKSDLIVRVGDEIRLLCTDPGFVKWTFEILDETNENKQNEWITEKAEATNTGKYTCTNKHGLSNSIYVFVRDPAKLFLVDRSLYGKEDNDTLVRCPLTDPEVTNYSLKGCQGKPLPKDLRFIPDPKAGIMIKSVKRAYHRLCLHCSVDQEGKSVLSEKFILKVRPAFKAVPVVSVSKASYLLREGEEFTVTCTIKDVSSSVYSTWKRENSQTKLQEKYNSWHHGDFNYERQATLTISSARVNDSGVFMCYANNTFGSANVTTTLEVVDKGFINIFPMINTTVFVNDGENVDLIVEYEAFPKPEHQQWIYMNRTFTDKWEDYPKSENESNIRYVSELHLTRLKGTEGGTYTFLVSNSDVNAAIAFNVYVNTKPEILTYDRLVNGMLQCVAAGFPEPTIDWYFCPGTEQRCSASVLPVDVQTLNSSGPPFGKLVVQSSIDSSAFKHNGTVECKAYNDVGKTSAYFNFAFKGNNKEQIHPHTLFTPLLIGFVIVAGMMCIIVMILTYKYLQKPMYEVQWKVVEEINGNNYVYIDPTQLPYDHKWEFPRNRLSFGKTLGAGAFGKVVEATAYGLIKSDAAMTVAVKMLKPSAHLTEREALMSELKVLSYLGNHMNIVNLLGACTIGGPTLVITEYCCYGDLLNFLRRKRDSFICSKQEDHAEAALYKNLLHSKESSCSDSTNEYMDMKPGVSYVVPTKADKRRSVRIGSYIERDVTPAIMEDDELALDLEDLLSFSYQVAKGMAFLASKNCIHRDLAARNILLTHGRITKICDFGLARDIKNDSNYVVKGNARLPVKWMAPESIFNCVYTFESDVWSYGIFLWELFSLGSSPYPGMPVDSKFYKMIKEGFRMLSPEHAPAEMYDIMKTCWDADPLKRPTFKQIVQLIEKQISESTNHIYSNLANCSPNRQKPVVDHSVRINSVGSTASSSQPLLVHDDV

| SMILES | IC50 [1] | hepatocyte CLint [2] | Papp at 2 h, 1 µM [3] | efflux ratio at 2 h, 1 µM [4] | solubility [5] | logD [7] | pKa [8] | microsomal CLint [9] | microsomal CLint [10] | solubility kinetic at 2 h [11] | inhibition [12] | solubility [13] | solubility [14] | IC50 [15] | inhibition at 5 min, 10 µM [6] |
| --- | --- | --- | --- | --- | --- | --- | --- | --- | --- | --- | --- | --- | --- | --- | --- |
| Cc1nc(-c2ccc(CNc3cc(-c4cnc5cc(OCCN6CCC(=O)N(C)CC6)ccn45)ncn3)cc2)co1 | 54 nM | 6 µL/min/1e6 cells | 7.6 ×10⁻⁶ cm/s | 7.5 | 10 µg/mL (≈ 18.1 µM) | 3.2 | 6.3 |  |  |  |  |  |  |  | -7% |
| c1ccn2c(-c3cncc(NCc4ccc(N5CCCC5)nc4)c3)cnc2c1 | 720 nM |  |  |  |  |  |  | > 75 µL/min/mg | > 75 µL/min/mg | 101 µM (≈ 37.4 µg/mL) |  |  |  | 12 nM | 90% |
| c1ccn2c(-c3cc(NCc4ccc(N5CCCC5)nc4)ncn3)cnc2c1 | 429 nM |  |  |  |  |  |  | 10 µL/min/mg | > 75 µL/min/mg | < 3 µM |  |  |  |  |  |
| CN1CCN(CCOc2ccn3c(-c4cncc(NCc5ccc(N6CCCC6)nc5)c4)cnc3c2)CC1 | 290 nM |  |  |  |  |  |  | 10 µL/min/mg | > 75 µL/min/mg | 100 µM (≈ 51.3 µg/mL) |  |  |  | 11 nM |  |
| COc1ccn2c(-c3cncc(NCc4ccc(N5CCCC5)nc4)c3)cnc2c1 | 300 nM |  |  |  |  |  |  | > 75 µL/min/mg | > 75 µL/min/mg | 81 µM (≈ 32.4 µg/mL) |  |  |  | 13 nM |  |
| c1ccn2c(-c3nccc(NCc4ccc(N5CCCC5)cc4)n3)cnc2c1 | 680 nM |  |  |  |  |  |  |  |  | 7 µM (≈ 2.59 µg/mL) |  |  |  | 5.6 nM |  |
| CN(Cc1ccc(N2CCCC2)nc1)c1cncc(-c2cnc3ccccn23)c1 |  |  |  |  |  |  |  |  |  | 8 µM (≈ 3.08 µg/mL) |  |  |  | 240 nM |  |
| COc1ccn2c(-c3cc(NCc4ccc(-c5cnn(C)n5)cc4)ncn3)cnc2c1 | 78 nM | 8 µL/min/1e6 cells | 9.5 ×10⁻⁶ cm/s | 0.7 | 4 µg/mL (≈ 9.7 µM) | 4 |  |  |  |  |  |  |  |  |  |
| c1ccc(-c2ccc(CNc3ccnc(-c4cnc5ccccn45)n3)cc2)cc1 | 340 nM |  |  |  |  |  |  | 10 µL/min/mg | 10 µL/min/mg | < 3 µM |  |  |  | 15 nM |  |
| c1ccn2c(-c3nccc(NCC4CCN(C5CCCC5)CC4)n3)cnc2c1 |  |  |  |  |  |  |  | 10 µL/min/mg | > 75 µL/min/mg |  |  |  |  | > 10000 nM |  |
| Cn1cc(-c2ccc(CNc3cc(-c4cnc5cc(OCCN6CCn7nncc7C6)ccn45)ncn3)cc2)cn1 | 76 nM | < 4 µL/min/1e6 cells | 7.6 ×10⁻⁶ cm/s | 18 | 10 µg/mL (≈ 18.3 µM) | 2.8 | 5.8 |  |  |  |  |  |  |  | -8% |
| COc1ccn2c(-c3cc(NCc4ccc(-c5ccccc5)cc4)ncn3)cnc2c1 | 160 nM |  |  |  |  |  |  | 10 µL/min/mg | < 10 µL/min/mg | < 2 µM |  |  |  | 4.6 nM |  |
| c1ccc2ncc(CNc3cncc(-c4cnc5ccccn45)c3)cc2c1 |  |  |  |  |  |  |  | 10 µL/min/mg | 10 µL/min/mg |  |  |  |  | > 10000 nM |  |
| COCCOc1ccn2c(-c3cncc(NCc4ccc(N5CCCC5)nc4)c3)cnc2c1 | 110 nM |  |  |  |  |  |  | > 75 µL/min/mg | > 75 µL/min/mg | 9 µM (≈ 4 µg/mL) |  |  |  | 12 nM |  |
| CC(Nc1cncc(-c2cnc3ccccn23)c1)c1ccc(N2CCCC2)nc1 (centres undefined) | 2600 nM |  |  |  |  |  |  | > 75 µL/min/mg | > 75 µL/min/mg | 124 µM (≈ 47.7 µg/mL) |  |  |  | 83 nM |  |

Now from value to molecule, other results behind:

| IC50 [1] | hepatocyte CLint [2] | Papp at 2 h, 1 µM [3] | efflux ratio at 2 h, 1 µM [4] | solubility [5] | logD [7] | pKa [8] | microsomal CLint [9] | microsomal CLint [10] | solubility kinetic at 2 h [11] | inhibition [12] | solubility [13] | solubility [14] | IC50 [15] | SMILES | inhibition at 5 min, 10 µM [6] |
| --- | --- | --- | --- | --- | --- | --- | --- | --- | --- | --- | --- | --- | --- | --- | --- |
| 75 nM | 9 µL/min/1e6 cells | 21 ×10⁻⁶ cm/s | 5 | 13 µg/mL (≈ 29.4 µM) | 3 |  |  |  |  |  |  |  |  | Cn1cc(-c2ccc(CNc3cc(-c4cnc5cc(OCCO)ccn45)ncn3)cc2)cn1 | -23% |
| 48 nM | 18 µL/min/1e6 cells | 12 ×10⁻⁶ cm/s | 0.9 | 2 µg/mL (≈ 4.39 µM) | 3.8 |  | 10 µL/min/mg | > 75 µL/min/mg | < 2 µM | Active | 13 µg/mL (≈ 28.5 µM) | 890 µg/mL (≈ 1950 µM) |  | COCCOc1ccn2c(-c3cc(NCc4ccc(-c5cnn(C)c5)cc4)ncn3)cnc2c1 | 1% |
| 46 nM | 4 µL/min/1e6 cells | 6.4 ×10⁻⁶ cm/s | 0.8 |  | 3 |  |  |  |  |  |  |  |  | COCCOc1ccn2c(-c3cc(NCc4ccc(-c5cnn(C)n5)cc4)ncn3)cnc2c1 |  |
| 61 nM | 4 µL/min/1e6 cells | 5.7 ×10⁻⁶ cm/s | 57 | 97 µg/mL (≈ 202 µM) | 1.9 | 9.5 |  |  |  |  |  |  |  | CN1CC(COc2ccn3c(-c4cc(NCc5ccc(-c6cnn(C)c6)cc5)ncn4)cnc3c2)C1 | -59% |
| 43 nM |  |  |  |  | 2.5 |  |  |  |  |  |  |  |  | CN(C)CCCOc1ccn2c(-c3cc(NCc4ccc(-c5cnn(C)c5)cc4)ncn3)cnc2c1 | -86% |
| 93 nM | 16 µL/min/1e6 cells | 3.1 ×10⁻⁶ cm/s | 4.7 | 16 µg/mL (≈ 29.2 µM) | 4.4 | 6.9 |  |  |  |  |  |  |  | Cn1cc(-c2ccc(CNc3cc(-c4cnc5cc(OCCN6CCC(C)(C#N)CC6)ccn45)ncn3)cc2)cn1 | -15% |
| 56 nM | 10 µL/min/1e6 cells | 9.5 ×10⁻⁶ cm/s | 15 | 16 µg/mL (≈ 31.3 µM) | 1.5 | 7.3 |  |  |  |  |  |  |  | Cn1cc(-c2ccc(CNc3cc(-c4cnc5cc(OCCCNC6COC6)ccn45)ncn3)cc2)cn1 | -19% |
| 70 nM | 18 µL/min/1e6 cells | 12 ×10⁻⁶ cm/s | 5.4 |  | 2.9 | 9.1 |  |  |  |  |  |  |  | Cn1cc(-c2ccc(CNc3cc(-c4cnc5cc(OCCN6CCCC6)ccn45)ncn3)cc2)cn1 | -78% |
| 55 nM |  |  |  |  |  |  | < 10 µL/min/mg | < 10 µL/min/mg | < 2 µM |  |  |  |  | COc1ccn2c(-c3cc(NCc4ccc(-c5cnn(C)c5)cc4)ncn3)cnc2c1 |  |
| 73 nM | 10 µL/min/1e6 cells | 1.8 ×10⁻⁶ cm/s | 1.3 | 2 µg/mL (≈ 3.61 µM) | 4.3 | 8.3 |  |  |  |  |  |  |  | Cn1cc(-c2ccc(CNc3cc(-c4cnc5cc(OCCCN6CCC(C)(F)CC6)ccn45)ncn3)cc2)cn1 | -4% |
